Like-named read-outs stand apart in the source and are kept apart here.
Target: T1, papain (Carica papaya, UniProt P00784)
T1 sequence (P00784 134-345): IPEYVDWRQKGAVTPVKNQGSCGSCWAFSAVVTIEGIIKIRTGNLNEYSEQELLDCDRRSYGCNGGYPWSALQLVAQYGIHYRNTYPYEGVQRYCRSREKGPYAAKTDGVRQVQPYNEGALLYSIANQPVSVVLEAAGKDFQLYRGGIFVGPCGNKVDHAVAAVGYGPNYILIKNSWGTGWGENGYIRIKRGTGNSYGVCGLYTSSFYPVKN
Experiment: chromogenic protease assay (BAPNA, […] nm) after […] min preincubation of DTT-reduced papain with compound
Assay type: biochemical

IC50 (read-out: IC50) [nM] | SMILES | IC50 [nM]
– | C=CCS[S+]([O-])CC=C (stereo not drawn) [compound 1, allicin] | 1200 ± 200
1100 ± 100 | [O-][S+](Cc1ccccc1)SCc1ccccc1 (stereo not drawn) [compound 2, petivericin] | –
1000 ± 100 | CCCCCCc1ccc(CS[S+]([O-])Cc2ccc(CCCCCC)cc2)cc1 (stereo not drawn) [compound 4, hexylated petivericin] | –
